pIC50: −log10 of the molar value.
Assays:
CEM-DNR = assay: Cytotoxic MTS assay, CEM-DNR; assay type: cell-based; conditions: Homo sapiens, 72 h, daunorubicin resistant subline of CCRF-CEM
Text: (§1) Cytotoxic activity of all synthesized compounds was investigated in vitro against eight human cancer cell lines and two non-tumor fibroblasts using the standard MTS test (Table 1). The cancer cell lines were derived from T-lymphoblastic leukemia CCRF-CEM, leukemia K562 and their multiresistant counterparts expressing P-glycoprotein, MRP1 and LRP proteins (CEM-DNR, K562-TAX), solid tumors including lung (A549) and colon (HCT116, HCT116p53-/-) carcinomas, osteosarcoma cell line (U2OS), and for comparison, tests were performed on two human non-cancer fibroblast cell lines (BJ, MRC-5).
(§2) Biological assays were performed in concordance with our previous publications [[29], [58]; [60]; [61]]. All cells (if not indicated otherwise) were purchased from the American Tissue Culture Collection (ATCC). The CCRF-CEM line is derived from T lymphoblastic leukemia, evincing high chemosenzitivity, K562 represent cells from an acute myeloid leukemia patient sample with bcr-abl translocation, U2OS line is derived from osteosarcoma, HCT116 is colorectal tumor cell line and its p53 gene knock-down counterpart (HCT116p53-/-, Horizon Discovery Ltd, UK) is a model of human cancers with p53 mutation frequently associated with poor prognosis, A549 line is lung adenocarcinoma. The daunorubicin resistant subline of CCRF-CEM cells (CEM-DNR bulk) and paclitaxel resistant subline K562-TAX were selected in our laboratory by the cultivation of maternal cell lines in increasing concentrations of daunorubicine or paclitaxel, respectively. The CEM-DNR bulk cells overexpress MRP-1 and P-glycoprotein protein, while K562-TAX cells overexpress P-glycoprotein only. Both proteins belong to the family of ABC transporters and are involved in the primary and/or acquired multidrug resistance phenomenon. MRC-5 and BJ cell lines were used as a non-tumor control and represent human fibroblasts. The cells were maintained in nunc/corning 80 cm^2 plastic tissue culture flasks and cultured in cell culture medium according to ATCC or Horizon recommendations (DMEM/RPMI 1640 with 5 g/L glucose, 2 mM glutamine, 100 U/mL penicillin, […] streptomycin, 10% fetal calf serum, and NaHCO3).
(§3) MTS assay was performed at Institute of Molecular and Translational Medicine by robotic platform (HighResBiosolutions). Cell suspensions were prepared and diluted according to the particular cell type and the expected target cell density (25000–35000 cells/mL based on cell growth characteristics). Cells were added by automatic pipetor (30 μL) into 384 well microtiter plates. All tested compounds were dissolved in 100% DMSO and four-fold dilutions of the intended test concentration were added in 0.15 μL aliquots at time zero to the microtiter plate wells by the echoacustic non-contact liquid handler Echo550 (Labcyte). The experiments were performed in technical duplicates and three biological replicates at least. The cells were incubated with the tested compounds for 72 h at 37°C, in a 5% CO2 atmosphere at 100% humidity. At the end of the incubation period, the cells were assayed by using the MTS test. Aliquots (5 μL) of the MTS stock solution were pipetted into each well and incubated for additional 1–4 h. After this incubation period, the optical density (OD) was measured at 490 nm with an Envision reader (Perkin Elmer). Tumor cell survival (TCS) was calculated by using the following equation: TCS = (ODdrug-exposed well/mean ODcontrol wells) × 100%. The IC50 value, the drug concentration that is lethal to 50% of the tumor cells, was calculated from the appropriate dose-response curves in Dotmatics software.

HCT116p53-/- = assay: Cytotoxic MTS assay, HCT116p53-/-; assay type: cell-based; conditions: Homo sapiens, 72 h, p53 knock-down colorectal tumor
Text: as §1, §2, §3

U2OS = assay: Cytotoxic MTS assay, U2OS; assay type: cell-based; conditions: Homo sapiens, 72 h, osteosarcoma
Text: as §1, §2, §3

K562-TAX = assay: Cytotoxic MTS assay, K562-TAX; assay type: cell-based; conditions: Homo sapiens, 72 h, paclitaxel resistant subline of K562
Text: as §1, §2, §3

HCT116 = assay: Cytotoxic MTS assay, HCT116; assay type: cell-based; conditions: Homo sapiens, HCT-116, 72 h, colorectal tumor
Text: as §1, §2, §3

MRC-5 = assay: Cytotoxic MTS assay, MRC-5 fibroblasts; assay type: cell-based; conditions: Homo sapiens, MRC5, 72 h, non-tumor fibroblasts
Text: as §1, §2, §3

K562 = assay: Cytotoxic MTS assay, K562; assay type: cell-based; conditions: Homo sapiens, 72 h, leukemia
Text: as §1, §2, §3

A549 = assay: Cytotoxic MTS assay, A549; assay type: cell-based; conditions: Homo sapiens, 72 h, lung adenocarcinoma
Text: as §1, §2, §3

BJ = assay: Cytotoxic MTS assay, BJ fibroblasts; assay type: cell-based; conditions: Homo sapiens, 72 h, non-tumor fibroblasts
Text: as §1, §2, §3

CCRF-CEM = assay: Cytotoxic MTS assay, CCRF-CEM; assay type: cell-based; conditions: Homo sapiens, 72 h, T-lymphoblastic leukemia
Text: as §1, §2, §3

C=C(CBr)[C@@H]1CC[C@]2(C(=O)O)CC[C@]3(C)C(CCC4[C@@]5(C)CC[C@H](O[Si](c6ccccc6)(c6ccccc6)c6ccccc6)C(C)(C)C5CC[C@]43C)C12 (stereo partly drawn) [Compound 5, 3β-O-Triphenylsilyl-30-bromobetulinic acid]
pIC50 (CEM-DNR): 4.88
pIC50 (HCT116p53-/-): 4.51
pIC50 (U2OS): 4.55
pIC50 (K562-TAX): 4.91
pIC50 (HCT116): 4.45
melting point: 208 to 210 °C
pIC50 (MRC-5): < 4.30
pIC50 (K562): < 4.30
pIC50 (A549): < 4.30
pIC50 (BJ): < 4.30
pIC50 (CCRF-CEM): < 4.30
